Converted amounts (≈) assume the structure as drawn. “Also recorded” adds a separate entry of the source.
What was measured:
MRSA 70 = experiment: MIC, agar plate dilution method; format: cell-based, methicillin-resistant Staphylococcus aureus; conditions: Staphylococcus aureus; MRSA 70; 37° C., 20 hours; read-out: MIC
Method: (§1) Assay of minimum inhibitory concentration (MIC) was performed according to the agar plate dilution method (Method of Japan Society of Chemotherapy, CHEMOTHERAPY 29, 76-79, 1981).
(§2) Test organisms used were 27 types of microorganisms including clinical isolates of methicillin-resistant Staphylococcus aureus. Each test organism was cultured in Mueller-Hinton broth (2.1% w/v) (DIFCO) at 37° C. for 20 hours, and the cultured cells were suspended to about 10^6 cell counts/ml in the same medium, then was used as the microbial suspension for inoculation. The prepared microbial suspension was smeared by using the microplanter on MHA medium (Mueller-Hinton broth 2.1% (w/v) and agar 1.5%) containing K04-0144A substance, K04-0144B substance or K04-0144C substance, each of which was subjected to two-fold stepwise dilution from 128 μg/ml. After culturing at 37° C. for 20 hours, MIC was determined by macroscopically confirming the growth of microorganisms. Vancomycin, arbekacin and linezolid were used as a comparative control.

MRSA 92-1191 = experiment: MIC, agar plate dilution method; format: cell-based, methicillin-resistant Staphylococcus aureus; conditions: Staphylococcus aureus; MRSA 92-1191; 37° C., 20 hours; read-out: MIC
Method: as §1, §2

MRSA N315 IR94 HR-1 = experiment: MIC, agar plate dilution method; format: cell-based, methicillin-resistant Staphylococcus aureus; conditions: Staphylococcus aureus, 20 h
Method: as §1, §2

A. calcoaceticus IFO2552 = experiment: MIC, agar plate dilution method; format: cell-based; conditions: Acinetobacter calcoaceticus; A. calcoaceticus IFO2552; 37° C., 20 hours; read-out: MIC
Method: as §1, §2

C. freundii ATCC8090 = experiment: MIC, agar plate dilution method; format: cell-based; conditions: Citrobacter freundii; C. freundii ATCC8090; 37° C., 20 hours; read-out: MIC
Method: as §1, §2

E. aerogenes NCTC10006 = experiment: MIC, agar plate dilution method; format: cell-based; conditions: Klebsiella aerogenes; E. aerogenes NCTC10006; 37° C., 20 hours; read-out: MIC
Method: as §1, §2

E. cloacae IFO13535 = experiment: MIC, agar plate dilution method; format: cell-based; conditions: Enterobacter cloacae; E. cloacae IFO13535; 37° C., 20 hours; read-out: MIC
Method: as §1, §2

E. coli NIHJ JC-2 = experiment: MIC, agar plate dilution method; format: cell-based; conditions: Escherichia coli, NIHJJC2; E. coli NIHJ JC-2; 37° C., 20 hours; read-out: MIC
Method: as §1, §2

[1] = test system: E. facecalis NTCT12201(VanA); experiment: MIC, agar plate dilution method; format: cell-based; conditions: E. facecalis NTCT12201(VanA); 37° C., 20 hours; read-out: MIC
Method: as §1, §2

E. faecalis ATCC21212 = experiment: MIC, agar plate dilution method; format: cell-based; conditions: Enterococcus faecalis; E. faecalis ATCC21212; 37° C., 20 hours; read-out: MIC
Method: as §1, §2

[2] = test system: E. faecium NTCT12203(VanA); experiment: MIC, agar plate dilution method; format: cell-based; conditions: Enterococcus faecium; E. faecium NTCT12203(VanA); 37° C., 20 hours; read-out: MIC
Method: as §1, §2

K. pneumoniae NCTN9632 = experiment: MIC, agar plate dilution method; format: cell-based; conditions: Klebsiella pneumoniae; K. pneumoniae NCTN9632; 37° C., 20 hours; read-out: MIC
Method: as §1, §2

M. luteus ATCC9341 = experiment: MIC, agar plate dilution method; format: cell-based; conditions: Micrococcus luteus; M. luteus ATCC9341; 37° C., 20 hours; read-out: MIC
Method: as §1, §2

M. morganii IID Kono = experiment: MIC, agar plate dilution method; format: cell-based; conditions: Morganella morganii; M. morganii IID Kono; 37° C., 20 hours; read-out: MIC
Method: as §1, §2

P. aeruginosa 46001 = experiment: MIC, agar plate dilution method; format: cell-based; conditions: Pseudomonas aeruginosa; P. aeruginosa 46001; 37° C., 20 hours; read-out: MIC
Method: as §1, §2

P. aeruginosa E-2 = experiment: MIC, agar plate dilution method; format: cell-based; conditions: Pseudomonas aeruginosa, E2; P. aeruginosa E-2; 37° C., 20 hours; read-out: MIC
Method: as §1, §2

P. mirabilis IFO3849 = experiment: MIC, agar plate dilution method; format: cell-based; conditions: Proteus mirabilis; P. mirabilis IFO3849; 37° C., 20 hours; read-out: MIC
Method: as §1, §2

P. vulgaris OX-19 = experiment: MIC, agar plate dilution method; format: cell-based; conditions: Proteus vulgaris, OX19; P. vulgaris OX-19; 37° C., 20 hours; read-out: MIC
Method: as §1, §2

S. aureus 8325(pEP2104) = experiment: MIC, agar plate dilution method; format: cell-based; conditions: Staphylococcus aureus, 20 h
Method: as §1, §2

S. aureus 8325(pMS97) = experiment: MIC, agar plate dilution method; format: cell-based; conditions: Staphylococcus aureus, 20 h
Method: as §1, §2

S. aureus FDA209P = experiment: MIC, agar plate dilution method; format: cell-based; conditions: Staphylococcus aureus; S. aureus FDA209P; 37° C., 20 hours; read-out: MIC
Method: as §1, §2

S. aureus ISP217 = experiment: MIC, agar plate dilution method; format: cell-based; conditions: Staphylococcus aureus; S. aureus ISP217; 37° C., 20 hours; read-out: MIC
Method: as §1, §2

S. aureus ISP447 = experiment: MIC, agar plate dilution method; format: cell-based; conditions: Staphylococcus aureus; S. aureus ISP447; 37° C., 20 hours; read-out: MIC
Method: as §1, §2

S. aureus Smith = experiment: MIC, agar plate dilution method; format: cell-based; conditions: Staphylococcus aureus; S. aureus Smith; 37° C., 20 hours; read-out: MIC
Method: as §1, §2

S. epidermidis IFO12648 = experiment: MIC, agar plate dilution method; format: cell-based; conditions: Staphylococcus epidermidis; S. epidermidis IFO12648; 37° C., 20 hours; read-out: MIC
Method: as §1, §2

S. marcescens IFO12648 = experiment: MIC, agar plate dilution method; format: cell-based; conditions: Serratia marcescens; S. marcescens IFO12648; 37° C., 20 hours; read-out: MIC
Method: as §1, §2

[3] = test system: clinical isolate of MRSA (K24 strain); experiment: MRSA infectious model using silkworms; format: in vivo, silkworm; conditions: 25 mg/kg into dorsal vessel; 72 hours after the inoculation; untreated infected silkworms all died within 72 hours
Method: As an alternative method for in vivo MRSA infection model using animals, the infection system using silkworms has been reported (Kaito et al, Microbial Pathogenesis, 32: 183-190, 2002). Effect of K04-0144A substance was measured according to this method.
Test organism used was the clinical isolate of MRSA (K24 strain). The MRSA was cultured statically using LB-10 medium (DIFCO) at 37° C. for 18 hours, and a 50 μl of the cultured strain was inoculated into the hemolymph of silkworm, 5 instar, 2nd day, (about 2 g, Ehime sansyu eggs Co., Japan). K04-0144A substance was prepared to a solution of 1 mg/ml, and 50 μl of the solution were administered by using syringe to the dorsal vessel of 5 silkworms infected with MRSA (25 mg/kg). Effect of the K04-0144A substance was evaluated by comparing the survival rate between a group with administering the sample and a group without administering the sample during the raising period of 72 hours after the inoculation. […] Further, all silkworms administered with 50 μl of MRSA bacterial suspension died within 72 hours after the inoculation.

silkworms = experiment: Toxicity against silkworms (substance only, no infection); format: in vivo, silkworm; conditions: 25 mg/kg, uninfected silkworms, 72 hours
Solubility in solvent = format: physicochemical; conditions: listed as K04-0144A substance

## C=C(C/C=C(\C)CCC=C(C)C)CCC(C)(C)/C=C/CC/C(C)=C\COC(COP(=O)(O)OC1OC(C(N)=O)C(C)(O)C(OC(N)=O)C1OC1OC(COC2OC(CO)C(O)C(O)C2O)C(OC2OC(C)C(OC3OC(C(=O)O)C(O)C(O)C3O)C(O)C2NC(C)=O)C(O)C1NC(C)=O)C(=O)O (centres unmarked) [K04-0144A]
MRSA 70
  MIC: 0.06 µg/mL (≈ 0.0403 µM)
MRSA 92-1191
  MIC: 0.25 µg/mL (≈ 0.168 µM)
MRSA N315 IR94 HR-1
  MIC: 0.125 µg/mL (≈ 0.084 µM)
A. calcoaceticus IFO2552
  MIC: 16 µg/mL (≈ 10.8 µM)
C. freundii ATCC8090
  MIC: > 16 µg/mL
E. aerogenes NCTC10006
  MIC: > 16 µg/mL
E. cloacae IFO13535
  MIC: > 16 µg/mL
E. coli NIHJ JC-2
  MIC: > 16 µg/mL
[1]
  MIC: 1 µg/mL (≈ 0.672 µM)
E. faecalis ATCC21212
  MIC: 1 µg/mL (≈ 0.672 µM)
[2]
  MIC: > 16 µg/mL
K. pneumoniae NCTN9632
  MIC: > 16 µg/mL
M. luteus ATCC9341
  MIC: > 16 µg/mL
M. morganii IID Kono
  MIC: > 16 µg/mL
P. aeruginosa 46001
  MIC: > 16 µg/mL
P. aeruginosa E-2
  MIC: > 16 µg/mL
P. mirabilis IFO3849
  MIC: > 16 µg/mL
P. vulgaris OX-19
  MIC: > 16 µg/mL
S. aureus 8325(pEP2104)
  MIC: 0.06 µg/mL (≈ 0.0403 µM)
S. aureus 8325(pMS97)
  MIC: 0.5 µg/mL (≈ 0.336 µM)
S. aureus FDA209P
  MIC: 1 µg/mL (≈ 0.672 µM)
S. aureus ISP217
  MIC: 0.25 µg/mL (≈ 0.168 µM)
S. aureus ISP447
  MIC: 0.25 µg/mL (≈ 0.168 µM)
S. aureus Smith
  MIC: 1 µg/mL (≈ 0.672 µM)
S. epidermidis IFO12648
  MIC: 4 µg/mL (≈ 2.69 µM)
S. marcescens IFO12648
  MIC: > 16 µg/mL
[3]
  survival of silkworms infected with MRSA: all survived after 72 hours of the inoculation
silkworms
  toxicity against silkworms (survival, substance only): no toxicity against silkworms
Solubility in solvent
  Solubility in solvent: Soluble in methanol and water DMSO; also recorded: Insoluble in acetone, chloroform and hexane

Reference: patent US7973147B2, “K04-0144 substance and a process for production thereof” (The Kitasato Institute, priority 2006, dated 2011)
